Laboratory results: patent publication US8394786B2, “Quinazoline derivatives” (Janssen Pharmaceutica N.V., priority 2003, dated 2013)

Assays:
SKOV3 cells = test: Serum starved proliferation assay on the ovarian carcinoma SKOV3 cells (C3); type: cell-based; conditions: Homo sapiens, SK-OV-3, 72 h, EGF stimulated (100 ng/ml, 72 hours, serum free) or 72 hours with compounds; MTT cell viability assay; read-out: SKOV3 cell (C3): pIC50 (converted)
Outline: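 MTT viability read-out in SKOV3 cells after a 24 h pre-incubation in 10% FCS, in one of two formats. EGF-stimulated version: serum-free compound exposure followed by 100 ng/ml EGF (final) for 72 h at 37 °C, 5% CO2. Otherwise, compound alone for 72 h.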

A431 cells = test: Proliferation assay on the squamous carcinoma cell line A431 cells (C5); type: cell-based; conditions: Homo sapiens, A-431; 72 hours with compounds; MTT cell viability assay; read-out: A431 cell (C5): pIC50 (converted)
Procedure: The squamous carcinoma cell line (A431) was used in a cell proliferation assay, to assess the inhibitory effect of the compounds in whole cells.
In a first step the A431 cells were incubated for 24 hours in the presence of 10% FCS serum. In the second step the cells were incubated for 72 hours with the compounds to be tested at a final concentration of 100 ng/ml. The effect of the compounds on the cell proliferation was finally assessed in a standard MTT cell viability assay.

EGFR [1] = molecular target: T1, EGFR (Homo sapiens, UniProt P00533); test: In vitro inhibition of EGFR using a scintillant proximity assay (C1); type: biochemical; parameters: 0.5 μg EGFR-kinase domain/well; conditions: EGFR-kinase domain, poly(GT)biotin, 5.0 μM unlabeled ATP, 30° C. 60 minutes; read-out: EGFR SPA (C1): IC50
Procedure: In the present EGFR SPA kinase reaction assay, a kinase substrate consisting of biotinylated poly(L-glutamic acid-L-tyrosine) (poly(GT)biotin), is incubated with the aforementioned protein in the presence of (^33P) radiolabeled ATP. (^33P) phosphorylation of the substrate is subsequently measured as light energy emitted using streptavidin-coated SPA beads (Amersham Pharmacia Biotech) by trapping and quantifying the binding of the biotin tagged and radiolabeled substrate.
The EGFR SPA kinase reaction is performed at 30° C. for 60 minutes in a 96-well microtiter plate. For each of the tested compounds a full dose response 1·10^−6M to 1·10^−10M has been performed. IRESSA® and Tarceva™ (erlotinib) were used as reference compounds. The 100 μl reaction volume contains 54.5 mM TrisHCl pH 8.0, 10 mM MgCl2, 100 μM Na3VO4, 5.0 μM unlabeled ATP, 1 mM DTT, 0.009% BSA, 0.8 μCi ^33P-ATP, 0.35 μg/well poly(GT)biotin and 0.5 μg EGFR-kinase domain/well. The reaction is stopped by adding to each well 100 μl of the streptavidin beads (10 mg/ml in PBS+100 mM EDTA+100 μM ATP). The plates are than shaked at 300 rpm for 30 min to allow binding of the biotinylated substrate to the streptavidin coated beads. Than the beads are allowed to settle at the bottom of the plate for 30 minutes. The microtiterplates are centrifuges at 800 rpm for 10 minutes and the amount of phosphorylated (^33P) Poly(GT)biotin is determined by counting (30 sec/well) in a microtiterplate scintillation counter.
Target sequence in this assay (P00533 712-979 limits assumed): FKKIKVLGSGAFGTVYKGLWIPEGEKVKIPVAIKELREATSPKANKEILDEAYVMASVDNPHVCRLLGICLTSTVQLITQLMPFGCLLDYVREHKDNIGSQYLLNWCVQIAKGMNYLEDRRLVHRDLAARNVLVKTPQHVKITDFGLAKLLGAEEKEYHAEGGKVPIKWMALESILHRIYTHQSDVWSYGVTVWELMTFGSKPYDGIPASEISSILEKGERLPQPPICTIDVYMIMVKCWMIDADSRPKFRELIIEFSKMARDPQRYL

EGFR [2] = molecular target: T1, EGFR; test: In vitro inhibition of EGFR, Flash Plate or glass-fiber filter technology (C2); type: biochemical; parameters: 0.5 μg EGFR-kinase domain/well; conditions: EGFR-kinase domain, 5.0 μM unlabeled ATP, read-out: Kinase activity.(C2): pIC50 (converted)
Outline: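 Two radiometric formats were used, each with 5.0 μM unlabeled ATP, [33P]ATP, 0.5 μg EGFR kinase domain and compounds from 1·10^−10 to 1·10^−6 M. Glass-fiber filter: 25° C for 10 min, pH 7.5, Mn2+/Mg2+, acid-stopped, phosphorimager read. Streptavidin Flash Plate: biotinylated poly(GT), pH 8.0, 30° C for 60 min.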
Target sequence in this assay (P00533 712-979 limits assumed): as above

EGFR [3] = molecular target: T1, EGFR; test: ELISA assay of EGFR tyrosine kinase activity (C4); type: biochemical; conditions: poly(Glu, Tyr) coated plate, 5 μM ATP, room temperature 10 min
Procedure: The EGFR ELISA is generally described by Yang, E. B. et al., 2001, Biochimica et Biophysica Acta, 1550; 144.
For the determination of EGFR tyrosine kinase activity, 100 μl of 0.4 μg/ml poly(Glu, Tyr) in PBS was coated per well on a 96-well microplate at 37° C. overnight. […] After washing three times with PBS the plates were either used immediately or stored at 4° C. Prior to the determination of the EGFR tyrosine kinase activity, the coated plates were washed two times with PBS. Next, to each well 88 μl of an ATP dilution (50 mM Tris HCl pH 8.0, 10 mM MgCl2, 100 μM Na3VO4, 1 mM DTT, 5 μM ATP) and 2 μl with various concentrations of the compounds to be tested, were added. The EGFR tyrosine kinase-catalysed reaction was started by the addition of 10 μl of diluted EGFR (dilution→0.05 μg per well enzyme diluted in 50 mM TrisHCl pH 8.0+0.1% BSA). After incubation at room temperature for 10 min, the reaction was stopped by washing five times with PBS with 0.1% Tween 20. Subsequently […] of recombinant anti-phosphotyrosine horseradish peroxidase conjugate (1:2500) in BSA (10 mg/ml in PBS) was added. After incubation at room temperature for 1 h, the microplate was washed five times with PBS/Tween 20. After the microplate was incubated with 100 μl of TMB-ELISA (1-step Ultra TMB-ELISA, Pierce) until colour development, 100 μl of 0.5 M H2SO4 was added to stop the reaction, and it was read in a microplate reader at 450-655 nm.
Target sequence in this assay (P00533 25-1210): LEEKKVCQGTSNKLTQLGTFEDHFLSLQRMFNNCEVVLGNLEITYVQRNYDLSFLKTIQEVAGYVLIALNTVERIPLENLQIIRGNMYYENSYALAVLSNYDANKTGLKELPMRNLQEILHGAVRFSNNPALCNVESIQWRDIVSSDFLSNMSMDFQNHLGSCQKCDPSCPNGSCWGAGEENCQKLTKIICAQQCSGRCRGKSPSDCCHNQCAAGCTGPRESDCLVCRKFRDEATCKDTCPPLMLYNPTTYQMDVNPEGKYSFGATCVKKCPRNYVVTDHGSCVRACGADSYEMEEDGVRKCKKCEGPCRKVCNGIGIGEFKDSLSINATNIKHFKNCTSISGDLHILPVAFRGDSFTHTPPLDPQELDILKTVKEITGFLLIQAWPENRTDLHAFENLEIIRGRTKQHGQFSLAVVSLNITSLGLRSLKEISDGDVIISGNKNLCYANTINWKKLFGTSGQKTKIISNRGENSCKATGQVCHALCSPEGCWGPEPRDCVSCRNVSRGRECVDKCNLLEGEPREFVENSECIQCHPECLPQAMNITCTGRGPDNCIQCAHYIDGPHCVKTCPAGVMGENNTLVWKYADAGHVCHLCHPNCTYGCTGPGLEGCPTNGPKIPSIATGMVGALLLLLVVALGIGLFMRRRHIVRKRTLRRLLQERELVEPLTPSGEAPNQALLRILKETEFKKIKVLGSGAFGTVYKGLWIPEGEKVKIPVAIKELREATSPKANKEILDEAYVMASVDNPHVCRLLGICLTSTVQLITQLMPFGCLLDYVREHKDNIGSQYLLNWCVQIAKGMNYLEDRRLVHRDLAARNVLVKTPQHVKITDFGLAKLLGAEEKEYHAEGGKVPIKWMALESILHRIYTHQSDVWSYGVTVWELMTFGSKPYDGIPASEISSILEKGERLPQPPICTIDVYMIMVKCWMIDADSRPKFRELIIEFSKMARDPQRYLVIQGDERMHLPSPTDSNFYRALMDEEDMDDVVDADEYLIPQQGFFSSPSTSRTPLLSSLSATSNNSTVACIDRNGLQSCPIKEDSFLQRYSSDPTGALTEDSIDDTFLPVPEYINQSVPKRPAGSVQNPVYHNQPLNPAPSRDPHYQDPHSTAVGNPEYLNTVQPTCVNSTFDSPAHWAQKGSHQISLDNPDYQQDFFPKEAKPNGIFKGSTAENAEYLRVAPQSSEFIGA

With `COc1cc2ncnc3c2cc1OCCCCCCOc1ccc(Cl)cc1N3` [Compound 3, 4,6-ethanediylidene-19H-pyrimido[4,5-b][6,13,1]benzodioxaazacyclo-pentadecine, 17-chloro-8,9,10,11,12,13-hexahydro-20-methoxy-] the IC50 (SKOV3 cells) was 1350 nM, the IC50 (A431 cells) was > 1000 nM and the IC50 (EGFR [1]) was 3.61 nM. The IC50 (EGFR [2]) was 15.8 nM, the melting point was 241.5 to 242.7 °C and the IC50 (EGFR [3]) was > 1000 nM.
For `COc1cc2ncnc3c2cc1OC(=O)CCCCCOc1c(C)cccc1N3` [Compound 1, 4,6-ethanediylidene-19H-pyrimido[4,5-b][6,13,1]benzodioxaazacyclo-pentadecin-8(9H)-one, 10,11,12,13-tetrahydro-20-methoxy-15-methyl-], the IC50 (SKOV3 cells) was > 2000 nM, the IC50 (A431 cells) was > 1000 nM and the IC50 (EGFR [1]) was > 100 nM. The IC50 (EGFR [2]) was > 10000 nM and the IC50 (EGFR [3]) was > 1000 nM.
`COc1cc2ncnc3c2cc1OCCCCCCOc1ccc(Br)cc1N3` [Compound 6, 4,6-ethanediylidene-19H-pyrimido[4,5-b][6,13,1]benzodioxaazacyclo-pentadecine, 17-bromo-8,9,10,11,12,13-hexahydro-20-methoxy-] showed an IC50 (SKOV3 cells) of 1820 nM, an IC50 (EGFR [1]) of 4.4 nM and an IC50 (EGFR [2]) of 25.1 nM. For the same compound, the melting point was 228.6 to 234.8 °C and the IC50 (EGFR [3]) was 359 nM.
Compound `COc1cc2ncnc3c2cc1OCCCCCCCCCOc1ccc(Cl)cc1N3` [Compound 9, 4,6-ethanediylidene-8H,22H-pyrimido[4,5-b][6,16,1]benzo-dioxaazacyclooctadecine, 20-chloro-9,10,11,12,13,14,15,16-octahydro-23-methoxy-] has an IC50 (EGFR [1]) of 6.79 nM, an IC50 (EGFR [2]) of 39.8 nM and a melting point of 177.4 to 183.8 °C. The IC50 (EGFR [3]) was > 1000 nM.
In the case of `COc1cc2ncnc3c2cc1OCCCCCCOc1c(Cl)cccc1N3` [Compound 2, 4,6-ethanediylidene-19H-pyrimido[4,5-b][6,13,1]benzodioxaazacyclo-pentadecine, 15-chloro-8,9,10,11,12,13-hexahydro-20-methoxy-], the IC50 (SKOV3 cells) is reported as > 2000 nM, the IC50 (A431 cells) is reported as > 1000 nM and the IC50 (EGFR [1]) is reported as > 100 nM. For the same compound, the IC50 (EGFR [2]) was 100 nM, the melting point was 255.5 to 260.2 °C and the IC50 (EGFR [3]) was > 1000 nM.
In the case of `COc1cc2ncnc3c2cc1OCCCCCCCOc1ccc(Cl)cc1N3` [Compound 7, 4,6-ethanediylidene-8H,20H-pyrimido[4,5-b][6,14,1]benzo-dioxaazacyclohexadecine, 18-chloro-9,10,11,12,13,14-hexahydro-21-methoxy-], the IC50 (SKOV3 cells) is reported as > 10000 nM, the IC50 (EGFR [1]) is reported as 6.64 nM and the IC50 (EGFR [2]) is reported as 79.4 nM. For the same compound, the melting point was 240.6 to 243.7 °C and the IC50 (EGFR [3]) was > 1000 nM.
`COc1cc2ncnc3c2cc1OCCCCCOc1ccc(Cl)cc1N3` [Compound 4, 4,6-ethanediylidene-8H,18H-pyrimido[4,5-b][6,12,1]benzo-dioxaazacyclotetradecine, 16-chloro-9,10,11,12-tetrahydro-19-methoxy-] gave an IC50 (SKOV3 cells) of 2880 nM, an IC50 (EGFR [1]) of 32.6 nM and an IC50 (EGFR [2]) of 50.1 nM. It also gave a melting point of 213.5 to 221.2 °C and an IC50 (EGFR [3]) of 556 nM.
`COc1cc2ncnc3c2cc1OCCCCCCOc1ccccc1N3` [Compound 5, 4,6-ethanediylidene-19H-pyrimido[4,5-b][6,13,1]benzodioxaazacyclo-pentadecine, 8,9,10,11,12,13-hexahydro-20-methoxy-] showed an IC50 (SKOV3 cells) of 4790 nM, an IC50 (EGFR [1]) of 81.1 nM and an IC50 (EGFR [2]) of 398 nM. The melting point was 243.3 to 251.2 °C and the IC50 (EGFR [3]) was > 1000 nM.
With `COc1cc2ncnc3c2cc1OCCCCCCCCOc1ccc(Cl)cc1N3` [Compound 8, 4,6-ethanediylidene-21H-pyrimido[4,5-b][6,15,1]benzodioxaazacyclo-heptadecine, 19-chloro-8,9,10,11,12,13,14,15-octahydro-22-methoxy-] the IC50 (SKOV3 cells) was > 10000 nM, the IC50 (EGFR [1]) was 3.97 nM and the IC50 (EGFR [2]) was 31.6 nM. It also gave a melting point of 147.7 to 151.1 °C and an IC50 (EGFR [3]) of 329 nM.
